In US10251395B2, “Substituted furano-/thienocycloalkylamino-2-pyrimidine derivatives and use thereof for controlling undesired plant growth” (Bayer CropScience Aktiengesellschaft, priority 2015, dated 2019):

Experiments:
Assay type in all cases: in vivo
Ipomoea purpurea [1] = assay: Pre-emergence herbicidal effect; conditions: Dosage 320 g/ha, scored visually after 3 weeks
In short: (§1)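 Seeds sown in sandy loam in wood-fiber pots and covered with soil; WP or EC formulations applied to the soil surface as aqueous suspension or emulsion at 600 to 800 L/ha water with 0.2% wetting agent. Greenhouse, 3 weeks; damage scored visually versus untreated controls (100% = plants died, 0% = like control).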

Cyperus esculentus = assay: Pre-emergence herbicidal effect; conditions: scored visually after 3 weeks
In short: as §1

Veronica persica [2] = assay: Pre-emergence herbicidal effect; conditions: scored visually after 3 weeks
In short: as §1

Setaria viridis [3] = assay: Pre-emergence herbicidal effect; conditions: scored visually after 3 weeks
In short: as §1

Alopecurus myosuroides [4] = assay: Pre-emergence herbicidal effect; conditions: scored visually after 3 weeks
In short: as §1

Echinochloa crus-galli [5] = assay: Pre-emergence herbicidal effect; conditions: scored visually after 3 weeks
In short: as §1

Avena fatua = assay: Pre-emergence herbicidal effect; conditions: scored visually after 3 weeks
In short: as §1

Matricaria inodora [6] = assay: Pre-emergence herbicidal effect; conditions: scored visually after 3 weeks
In short: as §1

Abutilon theophrasti [7] = assay: Pre-emergence herbicidal effect; conditions: scored visually after 3 weeks
In short: as §1

Stellaria media [8] = assay: Pre-emergence herbicidal effect; conditions: scored visually after 3 weeks
In short: as §1

Amaranthus retroflexus [9] = assay: Pre-emergence herbicidal effect; conditions: scored visually after 3 weeks
In short: as §1

Polygonum convolvulus [10] = assay: Pre-emergence herbicidal effect; conditions: scored visually after 3 weeks
In short: as §1

Veronica persica [11] = assay: Post-emergence herbicidal effect; conditions: assessed visually after about 3 weeks vs untreated controls
In short: (§2)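 Ratings are visual percentages taken around 3 weeks after treatment, compared with untreated plants. Treatment consisted of an aqueous spray of WP or EC formulations, with 0.2% wetting agent, onto one-leaf-stage weeds raised from seed in sandy loam.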

Setaria viridis [12] = assay: Post-emergence herbicidal effect; conditions: assessed visually after about 3 weeks vs untreated controls
In short: as §2

Echinochloa crus-galli [13] = assay: Post-emergence herbicidal effect; conditions: assessed visually after about 3 weeks vs untreated controls
In short: as §2

Matricaria inodora [14] = assay: Post-emergence herbicidal effect; conditions: assessed visually after about 3 weeks vs untreated controls
In short: as §2

Stellaria media [15] = assay: Post-emergence herbicidal effect; conditions: assessed visually after about 3 weeks vs untreated controls
In short: as §2

Amaranthus retroflexus [16] = assay: Post-emergence herbicidal effect; conditions: assessed visually after about 3 weeks vs untreated controls
In short: as §2

Viola tricolor [17] = assay: Post-emergence herbicidal effect; conditions: assessed visually after about 3 weeks vs untreated controls
In short: as §2

Viola tricolor [18] = assay: Pre-emergence herbicidal effect; conditions: scored visually after 3 weeks
In short: as §1

Ipomoea purpurea [19] = assay: Post-emergence herbicidal effect; conditions: assessed visually after about 3 weeks vs untreated controls
In short: as §2

Lolium multiflorum = assay: Post-emergence herbicidal effect; conditions: 320 g/ha, assessed visually after about 3 weeks vs untreated controls
In short: as §2

Alopecurus myosuroides [20] = assay: Post-emergence herbicidal effect; conditions: 320 g/ha, assessed visually after about 3 weeks vs untreated controls
In short: as §2

Abutilon theophrasti [21] = assay: Post-emergence herbicidal effect; conditions: assessed visually after about 3 weeks vs untreated controls
In short: as §2

Polygonum convolvulus [22] = assay: Post-emergence herbicidal effect; conditions: assessed visually after about 3 weeks vs untreated controls
In short: as §2

Cc1cc2c(s1)CCCC2Nc1ncc(C#N)c(N)n1 (racemic) [compound 52]
PHBPU pre-emergence efficacy (herbicidal activity) (Ipomoea purpurea [1]): 100% | CYPES pre-emergence efficacy (herbicidal activity) (Cyperus esculentus; Dosage 80 g/ha): 100% | CYPES pre-emergence efficacy (herbicidal activity) (Cyperus esculentus; Dosage 320 g/ha): 100% | VERPE pre-emergence efficacy (herbicidal activity) (Veronica persica [2]; Dosage 80 g/ha): 100% | VERPE pre-emergence efficacy (herbicidal activity) (Veronica persica [2]; Dosage 320 g/ha): 100% | SETVI pre-emergence efficacy (herbicidal activity) (Setaria viridis [3]; Dosage 80 g/ha): 80% | SETVI pre-emergence efficacy (herbicidal activity) (Setaria viridis [3]; Dosage 320 g/ha): 100% | ALOMY pre-emergence efficacy (herbicidal activity) (Alopecurus myosuroides [4]; Dosage 80 g/ha): 70% | ALOMY pre-emergence efficacy (herbicidal activity) (Alopecurus myosuroides [4]; Dosage 320 g/ha): 80% | ECHCG pre-emergence efficacy (herbicidal activity) (Echinochloa crus-galli [5]; Dosage 80 g/ha): 80% | ECHCG pre-emergence efficacy (herbicidal activity) (Echinochloa crus-galli [5]; Dosage 320 g/ha): 90% | AVEFA pre-emergence efficacy (herbicidal activity) (Avena fatua; Dosage 80 g/ha): 90% | AVEFA pre-emergence efficacy (herbicidal activity) (Avena fatua; Dosage 320 g/ha): 90% | MATIN pre-emergence efficacy (herbicidal activity) (Matricaria inodora [6]; Dosage 80 g/ha): 100% | MATIN pre-emergence efficacy (herbicidal activity) (Matricaria inodora [6]; Dosage 320 g/ha): 100% | ABUTH pre-emergence efficacy (herbicidal activity) (Abutilon theophrasti [7]; Dosage 80 g/ha): 90% | ABUTH pre-emergence efficacy (herbicidal activity) (Abutilon theophrasti [7]; Dosage 320 g/ha): 100% | STEME pre-emergence efficacy (herbicidal activity) (Stellaria media [8]; Dosage 80 g/ha): 100% | STEME pre-emergence efficacy (herbicidal activity) (Stellaria media [8]; Dosage 320 g/ha): 100% | AMARE pre-emergence efficacy (herbicidal activity) (Amaranthus retroflexus [9]; Dosage 80 g/ha): 100% | AMARE pre-emergence efficacy (herbicidal activity) (Amaranthus retroflexus [9]; Dosage 320 g/ha): 100% | POLCO pre-emergence efficacy (herbicidal activity) (Polygonum convolvulus [10]; Dosage 80 g/ha): 100% | POLCO pre-emergence efficacy (herbicidal activity) (Polygonum convolvulus [10]; Dosage 320 g/ha): 100% | post-emergence efficacy VERPE (Veronica persica [11]; 80 g/ha): 90% | post-emergence efficacy VERPE (Veronica persica [11]; 320 g/ha): 90% | post-emergence efficacy SETVI (Setaria viridis [12]; 80 g/ha): 60% | post-emergence efficacy SETVI (Setaria viridis [12]; 320 g/ha): 80% | post-emergence efficacy ECHCG (Echinochloa crus-galli [13]; 320 g/ha): 100% | post-emergence efficacy MATIN (Matricaria inodora [14]; 80 g/ha): 60% | post-emergence efficacy MATIN (Matricaria inodora [14]; 320 g/ha): 60% | post-emergence efficacy STEME (Stellaria media [15]; 80 g/ha): 100% | post-emergence efficacy STEME (Stellaria media [15]; 320 g/ha): 100% | post-emergence efficacy AMARE (Amaranthus retroflexus [16]; 80 g/ha): 100% | post-emergence efficacy AMARE (Amaranthus retroflexus [16]; 320 g/ha): 100% | post-emergence efficacy VIOTR (Viola tricolor [17]; 80 g/ha): 90% | post-emergence efficacy VIOTR (Viola tricolor [17]; 320 g/ha): 90%

Cc1cc2c(s1)CCCC2Nc1ncc(C(F)(F)F)c(N)n1 (racemic) [compound 61]
PHBPU pre-emergence efficacy (herbicidal activity) (Ipomoea purpurea [1]): 90% | VERPE pre-emergence efficacy (herbicidal activity) (Veronica persica [2]; Dosage 80 g/ha): 100% | VERPE pre-emergence efficacy (herbicidal activity) (Veronica persica [2]; Dosage 320 g/ha): 100% | SETVI pre-emergence efficacy (herbicidal activity) (Setaria viridis [3]; Dosage 80 g/ha): 100% | SETVI pre-emergence efficacy (herbicidal activity) (Setaria viridis [3]; Dosage 320 g/ha): 100% | ALOMY pre-emergence efficacy (herbicidal activity) (Alopecurus myosuroides [4]; Dosage 80 g/ha): 80% | ALOMY pre-emergence efficacy (herbicidal activity) (Alopecurus myosuroides [4]; Dosage 320 g/ha): 100% | ECHCG pre-emergence efficacy (herbicidal activity) (Echinochloa crus-galli [5]; Dosage 80 g/ha): 90% | ECHCG pre-emergence efficacy (herbicidal activity) (Echinochloa crus-galli [5]; Dosage 320 g/ha): 90% | AVEFA pre-emergence efficacy (herbicidal activity) (Avena fatua; Dosage 320 g/ha): 80% | MATIN pre-emergence efficacy (herbicidal activity) (Matricaria inodora [6]; Dosage 80 g/ha): 100% | MATIN pre-emergence efficacy (herbicidal activity) (Matricaria inodora [6]; Dosage 320 g/ha): 100% | ABUTH pre-emergence efficacy (herbicidal activity) (Abutilon theophrasti [7]; Dosage 80 g/ha): 30% | ABUTH pre-emergence efficacy (herbicidal activity) (Abutilon theophrasti [7]; Dosage 320 g/ha): 100% | STEME pre-emergence efficacy (herbicidal activity) (Stellaria media [8]; Dosage 80 g/ha): 90% | STEME pre-emergence efficacy (herbicidal activity) (Stellaria media [8]; Dosage 320 g/ha): 100% | AMARE pre-emergence efficacy (herbicidal activity) (Amaranthus retroflexus [9]; Dosage 80 g/ha): 100% | AMARE pre-emergence efficacy (herbicidal activity) (Amaranthus retroflexus [9]; Dosage 320 g/ha): 100% | POLCO pre-emergence efficacy (herbicidal activity) (Polygonum convolvulus [10]; Dosage 80 g/ha): 90% | POLCO pre-emergence efficacy (herbicidal activity) (Polygonum convolvulus [10]; Dosage 320 g/ha): 90% | VIOTR pre-emergence efficacy (herbicidal activity) (Viola tricolor [18]; Dosage 80 g/ha): 80% | VIOTR pre-emergence efficacy (herbicidal activity) (Viola tricolor [18]; Dosage 320 g/ha): 100% | post-emergence efficacy PHBPU (Ipomoea purpurea [19]; 80 g/ha): 90% | post-emergence efficacy PHBPU (Ipomoea purpurea [19]; 320 g/ha): 100% | post-emergence efficacy LOLMU (Lolium multiflorum): 90% | post-emergence efficacy VERPE (Veronica persica [11]; 80 g/ha): 100% | post-emergence efficacy VERPE (Veronica persica [11]; 320 g/ha): 100% | post-emergence efficacy SETVI (Setaria viridis [12]; 80 g/ha): 80% | post-emergence efficacy SETVI (Setaria viridis [12]; 320 g/ha): 90% | post-emergence efficacy ALOMY (Alopecurus myosuroides [20]): 100% | post-emergence efficacy ECHCG (Echinochloa crus-galli [13]; 80 g/ha): 100% | post-emergence efficacy ECHCG (Echinochloa crus-galli [13]; 320 g/ha): 100% | post-emergence efficacy MATIN (Matricaria inodora [14]; 320 g/ha): 100% | post-emergence efficacy ABUTH (Abutilon theophrasti [21]; 80 g/ha): 90% | post-emergence efficacy ABUTH (Abutilon theophrasti [21]; 320 g/ha): 90% | post-emergence efficacy STEME (Stellaria media [15]; 80 g/ha): 100% | post-emergence efficacy STEME (Stellaria media [15]; 320 g/ha): 100% | post-emergence efficacy AMARE (Amaranthus retroflexus [16]; 80 g/ha): 90% | post-emergence efficacy AMARE (Amaranthus retroflexus [16]; 320 g/ha): 90% | post-emergence efficacy POLCO (Polygonum convolvulus [22]; 80 g/ha): 80% | post-emergence efficacy POLCO (Polygonum convolvulus [22]; 320 g/ha): 90% | post-emergence efficacy VIOTR (Viola tricolor [17]; 80 g/ha): 90% | post-emergence efficacy VIOTR (Viola tricolor [17]; 320 g/ha): 90%
